Source: US5880092A, “Conformationally stabilized cell adhesion peptides” (La Jolla Cancer Research Foundation, priority 1995, dated 1999)
Where no end group is shown, it is not given here. [ ]: non-standard residue; d: D form. Pen = CC(C)(S)[C@H](N)C(=O)O

Legend:
[1] = tested on: attachment of normal rat kidney cells to vitronectin; test: Cell adhesion assay: inhibition of attachment of normal rat kidney cells to vitronectin; format: cell-based; details: vitronectin from human plasma coated at 12 μg/ml, peptide 0 to 10.0 mM, FIG. 2
Method: (§1) Fibronectin and vitronectin were purified from human plasma according to the methods of Ruoslahti et al., (1982) Meth. Enz. 82:803; and Hayman et al., (1983) PNAS 80:4003, respectively, both of which are incorporated herein by reference. The adhesion of normal rat kidney cells to fibronectin and vitronectin was assayed as described in Ruoslahti et al., Meth. Enz. supra. Briefly, 0.1 ml solution of fibronectin or vitronectin at a concentration of 12 μg/ml in 0.1M PBS was placed in each well of 96-well plastic microtiter plates and left for 2 hours at room temperature. The unattached protein was removed by washing three times with PBS.
(§2) One day before the assay, a confluent culture of normal rat kidney cells was split 1:2 using standard tissue culture trypsin. The cells were washed three times with PBS, pH 7.2. […] Before the last centrifugation, a sample was taken and cell numbers and viability by trypan blue exclusion are determined. […]
(§3) The unattached cells were removed simply by removing the medium and washing the wells. […] The cells were then fixed with 3% paraformaldehyde in PBS and stained with 1% toluidine blue, paraformaldehyde in PBS, and attached cells counted. Their number was determined using a cell counter that is capable of counting cells attached to a surface (Dynatech Laboratories, Alexandria, Va.). […]

[2] = tested on: attachment of normal rat kidney cells to fibronectin; test: Cell adhesion assay: inhibition of attachment of normal rat kidney cells to fibronectin; format: cell-based; details: fibronectin from human plasma coated at 12 μg/ml, peptide 0 to 10.0 mM, FIG. 2
Method: as §1, §2, §3

Question: How did the “inhibition of attachment to vitronectin” value [1] turn out when “G[Pen]GRGDSPC (cysteine pairing not given here) [linear peptide]” was run?
Answer: inhibited attachment of cells to both substrates at relatively similar concentrations

Question: And the “inhibition of attachment to fibronectin” value [2]?
Answer: inhibited attachment of cells to both substrates at relatively similar concentrations
